{"source": "patent US11020414B2", "about": "“Antimicrobial compositions with cysteamine” (priority 2010, dated 2021)", "key": {"[1]": {"system": "Pseudomonas aeruginosa Pa14", "test": "MIC determination, strain Pa14", "type": "cell-based", "procedure": "(§1) The bacterial inoculum was established by the dilution method from actively-growing cultures in Mueller-Hinton (MH) broth, standardized with 0.5 McFarland turbidity standard as described in the CLSI method M26-A.\n(§2) Both the bacterial inoculum and the antimicrobial agents, including the compounds structurally related to cysteamine, were added simultaneously to the plates. The plates were incubated at 37° C. for 24 h and the optical density was read at 625 nm on a microtitre plate reader (BioTek Powerwave XS, Winooski, USA). […]\n(§3) A number of compounds related in chemical structure to cysteamine were examined for antimicrobial activity; cystamine (dihydrochloride salt), taurine and 2,3-dimercaptosuccinic acid. Other compounds chemically related to cysteamine are known, but are toxic, and are therefore of no utility in a drug of this nature."}, "[2]": {"system": "Pseudomonas aeruginosa Pa14", "test": "FIC index of combinations with conventional antibiotics, strain Pa14", "type": "cell-based", "conditions": "strain Pa14 (Col^R)", "procedure": "as §1\n(§4) Both the bacterial inoculum and the antimicrobial agents, including the compounds structurally related to cysteamine, were added simultaneously to the plates. The plates were incubated at 37° C. for 24 h and the optical density was read at 625 nm on a microtitre plate reader (BioTek Powerwave XS, Winooski, USA). The MIC was obtained as the lowest concentration of antimicrobial showing total inhibition of bacterial growth.\n(§5) The FIC corresponds to an interaction coefficient indicating whether the combination of antimicrobial agents is synergistic, additive, antagonist or neutral. The FIC is determined by comparing the activity of an agent in combination (MIC of agent A+agent B) with the activity of the agent alone (MIC of agent A or agent B) as follow (Singh et al., 2000): FIC=MICA[combination]/MICA[alone]+MICB[combination]/MICB[alone]\n(§6) Additive combinations of two antimicrobial agents are indicated by a FIC index of 1, whereas a FIC index<1 indicates synergistic combinations. Neutral combinations would give a FIC between 1 and 4, a FIC index higher than 4 indicates antagonist effects between the two antimicrobial agents.\n(§7) The FIC was also calculated to assess the interaction of two antimicrobial agents in combination against bacterial samples."}, "[3]": {"system": "Pseudomonas aeruginosa Pa058", "test": "MIC determination, strain Pa058", "type": "cell-based", "procedure": "as §1, §2, §3"}, "[4]": {"system": "Pseudomonas aeruginosa Pa57388A", "test": "FIC index of combinations with conventional antibiotics, strain Pa57388A", "type": "cell-based", "conditions": "strain Pa57388A (Col^R), listed as Cysteamine (NM001)", "procedure": "as §1, §4, §5, §6, §7"}, "[5]": {"system": "P. aeruginosa PAO1 planktonic cells", "test": "MIC in physiologically-relevant ionic concentrations (FIG. 7)", "type": "cell-based, Pseudomonas aeruginosa", "procedure": "Bacterial growth was followed over a 24 h period and absorbance read using a BioTek microtitre plate reader at 625 nm. Total bacterial growth inhibition was retained in the presence of NaCl, CaCl2 or DNA and at two-fold the normal MIC100 in the presence of mucin. Tobramycin activity was inhibited in the presence of the divalent cation ca^2+ and in the presence of the anionic polymer DNA. […] A similar method as described above (1.4) was used for the determination of the antimicrobial activity of cysteamine (Lynovex®) in the presence of high ionic concentrations. […] Bacterial growth was followed over a 24 h period and absorbance read using a BioTek microtitre plate reader at 625 nm."}}, "note": "Values joined by “and” are separate entries in the source; they are usually repeats but may differ in a detail not shown here. Equal values may be shown once."}
{"smiles": "NCCS", "note": "[Cysteamine, cysteamine]", "values": [{"measurement": "MIC50", "setting": "[1]", "value": "125 to 250", "unit": "µg/mL"}, {"measurement": "MIC90", "setting": "[1]", "value": 500, "unit": "µg/mL"}, {"measurement": "MIC", "setting": "[1]; read-out: MIC100", "value": 1330, "unit": "µg/mL"}, {"measurement": "FICI (Additive) Cip", "setting": "[2]; in combination with Ciprofloxacin, listed as Cysteamine (NM001)", "value": "0.75 and 0.63"}, {"measurement": "FICI (Synergy) Col", "setting": "[2]; in combination with Colistin", "value": 0.38}, {"measurement": "FICI (Additive) Col", "setting": "[2]; in combination with Colistin, listed as Cysteamine (NM001)", "value": "0.53 and 0.5 and 0.56"}, {"measurement": "FICI (Additive) Gent", "setting": "[2]; in combination with Gentamicin, listed as Cysteamine (NM001)", "value": "0.63 and 0.5 and 0.75"}, {"measurement": "FICI (Additive) Tob", "setting": "[2]; in combination with Tobramycin, listed as Cysteamine (NM001)", "value": "0.56 and 0.75 and 0.5"}, {"measurement": "MIC50", "setting": "[3]", "value": 500, "unit": "µg/mL"}, {"measurement": "MIC90", "setting": "[3]", "value": 1000, "unit": "µg/mL"}, {"measurement": "MIC", "setting": "[3]; read-out: MIC100", "value": 1000, "unit": "µg/mL"}, {"measurement": "FICI (Additive) Cip", "setting": "[4]; in combination with Ciprofloxacin", "value": 0.63}, {"measurement": "FICI (Additive) Col", "setting": "[4]; in combination with Colistin", "value": "0.52 and 0.51 and 0.63 and 0.56"}, {"measurement": "FICI (Synergy) Col", "setting": "[4]; in combination with Colistin", "value": "0.38 and 0.31"}, {"measurement": "FICI (Additive) Gent", "setting": "[4]; in combination with Gentamicin", "value": "0.5 and 0.56 and 0.75"}, {"measurement": "FICI (Synergy) Gent", "setting": "[4]; in combination with Gentamicin", "value": 0.38}, {"measurement": "FICI (Additive) Tob", "setting": "[4]; in combination with Tobramycin", "value": "0.63 and 0.75 and 0.5 and 0.56"}, {"measurement": "FICI (Synergy) Tob", "setting": "[4]; in combination with Tobramycin", "value": "0.31 and 0.38"}, {"measurement": "total bacterial growth inhibition (MIC100) versus normal condition", "setting": "[5]; in the presence of 150 mM NaCl, 1.7 mM CaCl2 or 1 mg/ml DNA", "value": "retained"}, {"measurement": "concentration for total growth inhibition relative to the normal MIC100", "setting": "[5]; in the presence of 1% (w/v) porcine gastric mucin", "value": "two-fold"}]}
